Tests used:
UGT1A7 = biological target: T1, UGT1A7 (Homo sapiens, UniProt Q9HAW7); assay: Inhibition of recombinant UGT1A7 activity (4-MU glucuronidation)
T1 sequence (Q9HAW7 26-530): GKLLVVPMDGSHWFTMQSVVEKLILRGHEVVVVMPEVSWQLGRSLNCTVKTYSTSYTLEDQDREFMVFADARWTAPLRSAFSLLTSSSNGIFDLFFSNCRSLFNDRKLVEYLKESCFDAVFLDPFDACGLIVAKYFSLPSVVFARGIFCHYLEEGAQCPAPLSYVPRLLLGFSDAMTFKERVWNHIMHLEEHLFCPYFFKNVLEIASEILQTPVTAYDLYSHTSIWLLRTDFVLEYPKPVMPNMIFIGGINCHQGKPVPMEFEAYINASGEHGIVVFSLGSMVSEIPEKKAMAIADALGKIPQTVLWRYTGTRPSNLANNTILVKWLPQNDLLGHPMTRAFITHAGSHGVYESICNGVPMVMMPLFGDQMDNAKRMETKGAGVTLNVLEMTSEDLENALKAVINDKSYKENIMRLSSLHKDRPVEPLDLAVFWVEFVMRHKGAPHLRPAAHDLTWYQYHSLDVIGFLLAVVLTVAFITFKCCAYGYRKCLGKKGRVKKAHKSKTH
Description: (§1) A panel of recombinant human UGT supersomes (UGT1A1, UGT1A3, UGT1A4, UGT1A6, UGT1A7, UGT1A8, UGT1A9, UGT1A10, UGT2B4, UGT2B7, UGT2B15, and UGT2B17) expressed in baculovirus-infected insect cells were purchased from BD Gentest Corp. (Woburn, MA, USA).
(§2) 4-MU, a nonselective substrate of UGTs, was used as probe substrate for all UGTs except UGT1A4. Incubations with each individual enzyme were conducted using conditions previously described. There was a 5 min preincubation step at 37°C before the reaction was started by addition of UDPGA. The incubation mixtures were then centrifuged at 20,500 ×g for 15 min to obtain the supernatant. Aliquots (20 μL) were then analyzed by HPLC. The HPLC system (SHIMADZU, Kyoto, Japan) consisted of an SCL-10A system controller, two LC-10AT pumps, a SIL-10A auto injector, and a SPD-10AVP UV detector. Chromatographic separation was achieved using a Kromasil ODS column (4.6 × 150 mm I.D., 5 μm particle size) at a flow rate of 1 mL/min and UV detection at 316 nm. The mobile phase consisted of 10 mM KH2PO4, pH 2.7 (A) and acetonitrile (B). The following gradient was applied at a flow rate of 1 mL/min: 0–4 min 80% A and 20% B, 4.1–8 min 50% A and 50% B, 8.1–12 min, 30% A and 70% B. All experiments were performed in two independent experiments in duplicate.
A typical incubation mixture contained recombinant human UGTs, 5 mM MgCl2, 5 mM UDPGA, 50 μg/mg protein alamethicin, 50 mM Tris-HCl buffer (pH 7.4), and various probe substrates of UGTs in the absence or presence of different concentrations of inhibitors. […] The final concentration of DMSO in the incubation system was 1% (v/v). […] Known UGT inhibitors were used as positive controls: diclofenac for UGT1A1, UGT1A6, UGT1A7, and UGT1A9; androsterone for UGT1A3, UGT2B7, and UGT2B15, phenylbutazone for UGT1A8 and UGT1A10, and hecogenin for UGT1A4, respectively. There is no positive control reported available for UGT2B4 and UGT2B17. The negative controls are the incubation without UDPGA. […] The final concentration of DMSO in the incubation system was 1% (v/v). […] There was a 5 min preincubation step at 37°C before the reaction was started by the addition of UDPGA. Incubation times were 120 min for UGT1A1, UGT1A10, UGT2B4, UGT2B15, and UGT2B17, 75 min for UGT1A3, and 30 min for UGT1A4, UGT1A6, UGT1A7, UGT1A8, and UGT1A9. The reactions were quenched by adding 100 μL acetonitrile and internal standard. The incubation mixtures were then centrifuged at 20,500 ×g for 15 min to obtain the supernatant. An aliquot of the supernatant was used for HPLC analysis as described above. All experiments were performed in two independent experiments in duplicate.
Inhibition data from experiments were graphically represented by Dixon plots. K i values were calculated by nonlinear regression using the equations for competitive inhibition (1), noncompetitive inhibition (2), or mixed inhibition (3), [22] (1) v =VmaxS/Km(1+(I/Ki))+S, (2) v =VmaxS/(Km+S)(1+(I/Ki)), (3) v =VmaxS/Km (1+(I/Ki))+S(1+(I/αKi)), where v is the velocity of the reaction; S and I are the substrate and inhibitor concentrations, respectively; K i is the inhibition constant describing the affinity of the inhibitor for the enzyme; K m is the substrate concentration at half of the maximum velocity (V max) of the reaction; α reflects the effect of inhibitor on the affinity of the enzyme for its substrate. The type of inhibition was determined from the enzyme inhibition models. Goodness of fit to kinetic and inhibition models was assessed from the F statistic, r ^2 values, parameter standard error estimates, and 95% confidence intervals. Kinetic constants are reported as the mean value ± standard error of the parameter estimate.

UGT1A9 = biological target: T2, UGT1A9 (Homo sapiens, UniProt O60656); assay: Inhibition of recombinant UGT1A9 activity (4-MU glucuronidation)
T2 sequence (O60656 26-530): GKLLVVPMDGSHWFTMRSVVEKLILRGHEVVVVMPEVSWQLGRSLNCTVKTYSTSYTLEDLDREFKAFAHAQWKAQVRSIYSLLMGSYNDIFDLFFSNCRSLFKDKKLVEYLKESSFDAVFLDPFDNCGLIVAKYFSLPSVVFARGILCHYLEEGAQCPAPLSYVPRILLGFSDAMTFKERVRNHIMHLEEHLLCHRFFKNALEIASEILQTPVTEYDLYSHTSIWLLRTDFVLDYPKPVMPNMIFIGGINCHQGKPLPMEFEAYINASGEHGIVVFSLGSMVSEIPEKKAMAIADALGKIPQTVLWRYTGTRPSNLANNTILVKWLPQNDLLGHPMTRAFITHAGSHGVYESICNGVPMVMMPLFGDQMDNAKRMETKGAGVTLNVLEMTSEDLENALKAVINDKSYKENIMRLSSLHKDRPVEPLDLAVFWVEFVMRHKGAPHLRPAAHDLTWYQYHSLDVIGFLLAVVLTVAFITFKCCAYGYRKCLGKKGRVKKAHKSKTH
Description: as §1, §2
A typical incubation mixture contained recombinant human UGTs, 5 mM MgCl2, 5 mM UDPGA, 50 μg/mg protein alamethicin, 50 mM Tris-HCl buffer (pH 7.4), and various probe substrates of UGTs in the absence or presence of different concentrations of inhibitors. […] The final concentration of DMSO in the incubation system was 1% (v/v). […]
Inhibition data from experiments were graphically represented by Dixon plots. K i values were calculated by nonlinear regression using the equations for competitive inhibition (1), noncompetitive inhibition (2), or mixed inhibition (3), [22] […] The type of inhibition was determined from the enzyme inhibition models. Goodness of fit to kinetic and inhibition models was assessed from the F statistic, r ^2 values, parameter standard error estimates, and 95% confidence intervals. […]

| Structure (SMILES) | IC50 (UGT1A7) [µM] | Ki (UGT1A7) [µM] | Inhibition type against UGT1A7 (UGT1A7; recombinant UGT1A7) | α of mixed inhibition against UGT1A7 (UGT1A7; recombinant UGT1A7, mixed inhibition model) | IC50 (UGT1A9) [µM] |
| --- | --- | --- | --- | --- | --- |
| COc1ccc(-c2oc3c(CC=C(C)C)c(O)cc(O)c3c(=O)c2O)cc1 [Icaritin] | 0.3 | 0.7 ± 0.2 | mixed | 2.7 | 1.5 ± 0.1 |
| COc1ccc(-c2oc3c(CC=C(C)C)c(O[C@@H]4O[C@H](CO)[C@@H](O)[C@H](O)[C@H]4O)cc(O)c3c(=O)c2O)cc1 [Icariside I] | > 100 | – | – | – | > 100 |
| COc1ccc(-c2oc3c(CC=C(C)C)c(O[C@@H]4O[C@H](CO)[C@@H](O)[C@H](O)[C@H]4O)cc(O)c3c(=O)c2O[C@@H]2O[C@@H](C)[C@H](O)[C@@H](O)[C@H]2O)cc1 [Icariin] | > 100 | – | – | – | > 100 |
